tested on: Plasmodium falciparum; experiment: Antiplasmodial activity against chloroquine-sensitive asexual blood stage Plasmodium falciparum 3D7 assessed as inhibition of parasite growth incubated for […] by HRP2-ELISA; type: functional, organism-based; conditions: not given

Point of comparison: `CC(C)(C)c1ccc(C(O)C/C(N)=N/c2ccc(F)cc2)cc1` (configuration not stated), IC50 1500 nM. Against it:
- COc1ccc2nccc(C(O)C/C(N)=N/c3ccc(F)cc3)c2c1 (configuration not stated) — within 1.5-fold, 2100 nM
- CCN(CC)Cc1cc(/N=C(\N)CC(O)c2cc3ccccc3c3ccccc23)ccc1O (configuration not stated) — 30-fold lower, 50 nM
- N=C(CC(O)c1cc2c(Cl)cc(Cl)cc2c2cc(C(F)(F)F)ccc12)NCCc1ccc(F)cc1 (configuration not stated) — 4.3-fold lower, 350 nM
- N/C(CC(O)c1cc2c(F)cc(F)cc2c2cc(C(F)(F)F)ccc12)=N\CCc1ccc(F)cc1 (configuration not stated) — 6.2-fold lower, 240 nM
- COc1ccc(/N=C(\N)CC(O)c2ccc(C(C)(C)C)cc2)cc1 (configuration not stated) — 2.3-fold higher, 3400 nM
- COc1ccc(CC/N=C(\N)CC(O)c2cc3ccccc3c3ccccc23)cc1 (configuration not stated) — 21-fold lower, 70 nM
- N/C(CC(O)c1ccnc2ccccc12)=N\c1ccc(F)cc1 (configuration not stated) — 2.3-fold higher, 3400 nM
- CCCCN(CCCC)CC(O)c1cc(Cl)cc2c1-c1ccc(Cl)cc1/C2=C/c1ccc(Cl)cc1 (configuration not stated) [LUMEFANTRINE] — 250-fold lower, 6 nM

tested on: Plasmodium berghei; experiment: Antimalarial activity against Plasmodium berghei infected in mouse assessed as mean survival days at 30 mg/kg, po administered for 4 times starting from 4 to 72 hrs and monitered for 30 days (reference value: 4 days); type: functional; conditions: time 30 day

Molecule `C[C@H]1[C@H](OC(=O)CCC(=O)O)O[C@@H]2O[C@@]3(C)CC[C@H]4[C@H](C)CC[C@@H]1[C@@]24OO3` [ARTESUNATE] has an MSD of 9 days.

`CCCCN(CCCC)CC(O)c1cc(Cl)cc2c1-c1ccc(Cl)cc1/C2=C/c1ccc(Cl)cc1` (configuration not stated) [LUMEFANTRINE] showed an MSD of over 30 days.

tested on: not listed separately; experiment: Cytotoxicity against human HepG2 cells assessed as inhibition of cell growth incubated for 24 hrs by neutral red dye based analysis; type: toxicity; conditions: not given

Point of comparison: `CC(C)(C)c1ccc(C(O)C/C(N)=N/c2ccc(F)cc2)cc1` (configuration not stated), IC50 at 24 h 57500 nM. Against it:
- N/C(CC(O)c1cc2c(Cl)cc(Cl)cc2c2cc(C(F)(F)F)ccc12)=N\N1CCCCC1 (configuration not stated) — 6.9-fold lower, 8300 nM
- N/C(CC(O)c1cc2c(Cl)cc(Cl)cc2c2cc(C(F)(F)F)ccc12)=N\OCc1ccc(F)cc1 (configuration not stated) — 1.7-fold lower, 34100 nM
- COc1ccc2nccc(C(O)C/C(N)=N/c3ccc(F)cc3)c2c1 (configuration not stated) — 3.1-fold higher, 180000 nM
- CCN(CC)Cc1cc(/N=C(\N)CC(O)c2cc3ccccc3c3ccccc23)ccc1O (configuration not stated) — 3.8-fold lower, 15200 nM
- N=C(CC(O)c1cc2c(Cl)cc(Cl)cc2c2cc(C(F)(F)F)ccc12)NCCc1ccc(F)cc1 (configuration not stated) — 7.9-fold lower, 7300 nM
- COc1ccc(/N=C(\N)CC(O)c2ccc(C(C)(C)C)cc2)cc1 (configuration not stated) — within 1.5-fold, 56200 nM
- COc1ccc(CC/N=C(\N)CC(O)c2cc3ccccc3c3ccccc23)cc1 (configuration not stated) — 6.4-fold lower, 9000 nM
- N/C(CC(O)c1ccnc2ccccc12)=N\c1ccc(F)cc1 (configuration not stated) — higher, > 200000 nM
- CCCCN(CCCC)CC(O)c1cc(Cl)cc2c1-c1ccc(Cl)cc1/C2=C/c1ccc(Cl)cc1 (configuration not stated) [LUMEFANTRINE] — not separable, > 20000 nM

tested on: not listed separately; experiment: Selectivity index, ratio of IC50 for cytotoxicity against human HepG2 cells to IC50 for antiplasmodial activity against chloroquine-sensitive asexual blood stage Plasmodium falciparum 3D7; type: toxicity, cell-based; conditions: read-out: Ratio IC50

Point of comparison: `N/C(CC(O)c1cc2c(Cl)cc(Cl)cc2c2cc(C(F)(F)F)ccc12)=N\N1CCCCC1` (configuration not stated), selectivity ratio 1190. Against it:
- N/C(CC(O)c1cc2c(Cl)cc(Cl)cc2c2cc(C(F)(F)F)ccc12)=N\OCc1ccc(F)cc1 (configuration not stated) — lower, 122
- COc1ccc2nccc(C(O)C/C(N)=N/c3ccc(F)cc3)c2c1 (configuration not stated) — lower, 86
- CCN(CC)Cc1cc(/N=C(\N)CC(O)c2cc3ccccc3c3ccccc23)ccc1O (configuration not stated) — lower, 304
- CC(C)(C)c1ccc(C(O)C/C(N)=N/c2ccc(F)cc2)cc1 (configuration not stated) — lower, 38
- N=C(CC(O)c1cc2c(Cl)cc(Cl)cc2c2cc(C(F)(F)F)ccc12)NCCc1ccc(F)cc1 (configuration not stated) — lower, 21
- COc1ccc(/N=C(\N)CC(O)c2ccc(C(C)(C)C)cc2)cc1 (configuration not stated) — lower, 17
- COc1ccc(CC/N=C(\N)CC(O)c2cc3ccccc3c3ccccc23)cc1 (configuration not stated) — lower, 129
- N/C(CC(O)c1ccnc2ccccc12)=N\c1ccc(F)cc1 (configuration not stated) — not separable, > 200
- CCCCN(CCCC)CC(O)c1cc(Cl)cc2c1-c1ccc(Cl)cc1/C2=C/c1ccc(Cl)cc1 (configuration not stated) [LUMEFANTRINE] — lower, 20

tested on: Plasmodium berghei; experiment: Antimalarial activity against Plasmodium berghei infected in mouse assessed as reduction in parasitemia in blood at 30 mg/kg, po administered for 4 times starting from 4 to 72 hrs and measured after 96 hrs post infection (reference value: 0%); type: functional; design: scale not given: the % may be the effect or the level left; conditions: not given

Point of comparison: `C[C@H]1[C@H](OC(=O)CCC(=O)O)O[C@@H]2O[C@@]3(C)CC[C@H]4[C@H](C)CC[C@@H]1[C@@]24OO3` [ARTESUNATE], Activity 99%. Against it:
- CCCCN(CCCC)CC(O)c1cc(Cl)cc2c1-c1ccc(Cl)cc1/C2=C/c1ccc(Cl)cc1 (configuration not stated) [LUMEFANTRINE] — higher, 99.8%

tested on: Plasmodium falciparum; experiment: Antiplasmodial activity against multidrug resistant asexual blood stage Plasmodium falciparum Dd2 assessed as inhibition of parasite growth incubated for […] by HRP2-ELISA; type: functional, organism-based; conditions: not given

Point of comparison: `COc1ccc(/N=C(\N)CC(O)c2ccc(C(C)(C)C)cc2)cc1` (configuration not stated), IC50 2400 nM. Against it:
- COc1ccc2nccc(C(O)C/C(N)=N/c3ccc(F)cc3)c2c1 (configuration not stated) — 2.1-fold higher, 5100 nM
- CCN(CC)Cc1cc(/N=C(\N)CC(O)c2cc3ccccc3c3ccccc23)ccc1O (configuration not stated) — 3.8-fold lower, 640 nM
- CC(C)(C)c1ccc(C(O)C/C(N)=N/c2ccc(F)cc2)cc1 (configuration not stated) — 2.6-fold lower, 940 nM
- N=C(CC(O)c1cc2c(Cl)cc(Cl)cc2c2cc(C(F)(F)F)ccc12)NCCc1ccc(F)cc1 (configuration not stated) — 10-fold lower, 230 nM
- N/C(CC(O)c1cc2c(F)cc(F)cc2c2cc(C(F)(F)F)ccc12)=N\CCc1ccc(F)cc1 (configuration not stated) — 20-fold lower, 120 nM
- COc1ccc(CC/N=C(\N)CC(O)c2cc3ccccc3c3ccccc23)cc1 (configuration not stated) — 3.4-fold lower, 700 nM
- N/C(CC(O)c1ccnc2ccccc12)=N\c1ccc(F)cc1 (configuration not stated) — 2.3-fold higher, 5600 nM
- CCCCN(CCCC)CC(O)c1cc(Cl)cc2c1-c1ccc(Cl)cc1/C2=C/c1ccc(Cl)cc1 (configuration not stated) [LUMEFANTRINE] — 1200-fold lower, 2 nM

— ChEMBL document CHEMBL5214895, “3-Hydroxy-propanamidines, a New Class of Orally Active Antimalarials Targeting Plasmodium falciparum” (J Med Chem, 2021)
